Data set [1] is classed as in vitro ADME. Conditions: rat microsomes, incubation period of 60 min.
The format of data set [2] is in vitro ADME. Conditions: rat protein binding.
The format of data set [3] is in vitro ADME. The following applies: human protein binding.
The target of a further data set is hmGlu4 (Homo sapiens, UniProt Q14833).
Data set [4] is classed as in vitro ADME. The following applies: human microsomes, incubation period of 60 min.

Sequence of hmGlu4 (Q14833 33-912): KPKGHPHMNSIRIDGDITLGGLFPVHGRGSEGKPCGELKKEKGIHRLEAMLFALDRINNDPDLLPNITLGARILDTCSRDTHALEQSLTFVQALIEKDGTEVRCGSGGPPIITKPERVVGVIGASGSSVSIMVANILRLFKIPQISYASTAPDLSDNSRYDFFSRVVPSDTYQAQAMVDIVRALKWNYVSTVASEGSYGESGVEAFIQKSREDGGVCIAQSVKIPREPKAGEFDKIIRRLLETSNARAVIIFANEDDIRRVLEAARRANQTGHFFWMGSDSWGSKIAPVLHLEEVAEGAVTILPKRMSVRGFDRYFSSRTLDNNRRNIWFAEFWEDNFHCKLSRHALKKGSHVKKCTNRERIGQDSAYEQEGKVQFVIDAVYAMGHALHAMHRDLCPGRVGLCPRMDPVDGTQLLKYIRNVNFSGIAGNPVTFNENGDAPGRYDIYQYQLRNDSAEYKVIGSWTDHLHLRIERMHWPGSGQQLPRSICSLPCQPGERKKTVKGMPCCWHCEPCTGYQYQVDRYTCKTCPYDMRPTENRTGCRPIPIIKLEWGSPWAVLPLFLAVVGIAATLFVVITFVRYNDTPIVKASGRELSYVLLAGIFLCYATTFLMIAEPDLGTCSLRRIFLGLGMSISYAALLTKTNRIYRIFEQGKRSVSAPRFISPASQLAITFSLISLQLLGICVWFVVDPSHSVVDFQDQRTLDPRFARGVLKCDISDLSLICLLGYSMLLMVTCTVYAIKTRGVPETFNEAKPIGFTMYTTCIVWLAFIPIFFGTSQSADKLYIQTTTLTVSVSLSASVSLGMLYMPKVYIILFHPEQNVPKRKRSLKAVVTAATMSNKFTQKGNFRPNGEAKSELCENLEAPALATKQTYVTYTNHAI

Regarding `Cc1cc(C)c(NS(=O)(=O)c2ccc(NC(=O)c3ccco3)cc2)c(C)c1` [Compound 4], the “RLM (% remaining)” value in data set [1] stood at 93.3 % remaining. Besides, in data set [2], the “PPB (r) (% free)” value stood at 8.2 % free. Besides, the “PPB (h) (% free)” value in data set [3] turned out to be 2.2 % free.
As for `Cc1cc(C)c(NS(=O)(=O)c2ccc(NC(=O)c3ccccn3)cc2)c(C)c1` [Compound 5], the “RLM (% remaining)” value in data set [1] stood at 25.8 % remaining. Further, the “PPB (r) (% free)” value in data set [2] was found to be 0.3 % free. The “PPB (h) (% free)” value in data set [3] is given as 0.1 % free. In addition, the “increase in potency relative to 4” value at hmGlu4 (2-furyl amide of 4 changed to 2-pyridyl amide) was determined as 30 fold. In addition, the “receptor activation in the absence of glutamate” value on hmGlu4 (mGlu4/Gqi5 CHO cells, absence of an EC20 concentration of glutamate) is on record as “does not elicit receptor activation”.
Consider `O=C(Nc1ccc(S(=O)(=O)Nc2ccccc2Cl)cc1)c1ccccn1` [Compound 8b], for which the “RLM (% remaining)” value in data set [1] was determined as 0.02 % remaining. Also, the “PPB (r) (% free)” value in data set [2] is given as 0.3 % free. Moreover, in data set [3], the “PPB (h) (% free)” value came out at 0.1 % free. Also, the “HLM (% remaining)” value in data set [4] is recorded as 0.02 % remaining.
In the case of `O=C(Nc1ccc(S(=O)(=O)Nc2ccccc2Cl)cc1)c1nccs1` [Compound 9d], the “RLM (% remaining)” value in data set [1] was 1.2 % remaining. Further, the “PPB (r) (% free)” value in data set [2] is 0.1 % free. In addition, the “PPB (h) (% free)” value in data set [3] is listed as 0.1 % free. In data set [4], the “HLM (% remaining)” value is listed as 0.84 % remaining.
On to `CN(c1ccccc1Cl)S(=O)(=O)c1ccc(NC(=O)c2ccncn2)cc1` [Compound 9f], for which the “RLM (% remaining)” value in data set [1] is reported as 3.3 % remaining. Also, the “PPB (r) (% free)” value in data set [2] was determined as 2.7 % free. Further, the “PPB (h) (% free)” value in data set [3] is reported as 1.7 % free. Also, the “HLM (% remaining)” value in data set [4] came to 2.5 % remaining.
For `CN(c1ccccc1Cl)S(=O)(=O)c1ccc(NC(=O)c2nccs2)cc1` [Compound 9g], in that order: 0.08 % remaining, 37 % free, 0.5 % free and 0.1 % remaining.
In the same order, the values of `COc1ccccc1NS(=O)(=O)c1ccc(NC(=O)c2ccccn2)cc1OC` [Compound 10] are 0.05 % remaining, 12.7 % free, 0.3 % free and 1.3 % remaining.
Regarding `O=C(Nc1ccc(S(=O)(=O)Nc2ccccc2Cl)c(Cl)c1)c1ccccn1` [Compound 11], in data set [1], the “RLM (% remaining)” value is 0.02 % remaining. Also, the “HLM (% remaining)” value in data set [4] came out at 0.63 % remaining.
Take `O=C(Nc1ccc(Cl)c(S(=O)(=O)Nc2ccccc2Cl)c1)c1ccccn1` [Compound 13]: in data set [1], the “RLM (% remaining)” value is 0.05 % remaining. Besides, the “HLM (% remaining)” value in data set [4] turned out to be 11.9 % remaining. Besides, the loss of potency on hmGlu4 (relative to the parent compound (13 vs 11; N-Me vs NH sulfonamides)) is on record as 36 fold.

The values above are taken from article PMC2922490 (Bioorganic & medicinal chemistry letters, 2010).
